Test system: ASD patient
Assay: ABC-J aberrant behavior checklist (58 items, each rated 0 no problems to 3 marked; 5 subscales) in ASD patients before and after oral intake of test drug
Format: in vivo, human
Design: key to ABC-J subscale total score: Hyperactivity / ABC-J subscale total score: Inappropriate Speech: subscale total: sum of its item scores (each 0 = none to 3 = marked)
Experimental: ABC-J is an aberrant behavior checklist available in Japan, which was made by translating and standardizing the revised version of the aberrant behavior checklist developed by American psychologists Aman M. G. and Singh N. N. as a rating scale for quantitatively assessing behavioral disorders associated with intellectual disability and developmental disorder. ABC-J is composed of 58 items that represent problematic behaviors, and a subject is assessed for each item on the following four-rating scale: there are no problems (0 points); the degree of problematic behavior is mild (1 point); the degree of problematic behavior is moderate (2 points); and the degree of problematic behavior is marked (3 points). These 58 items are classified into five subscales: I. Irritability (15 items); II. Lethargy (16 items); III. Stereotypical Behavior (7 items); IV. Hyperactivity (16 items); and V. Inappropriate Speech (4 items). Assessment can be made for each subscale (Ministry of Health, Labour and Welfare, Year 2012 Total Welfare Promotion Project for People with Disabilities, Guidelines for Support for and Assessment of Children with Developmental Disabilities, Asperger Society Japan (a specified non-profit organization), March 2013). […]
An ASD patient (body weight: 45 kg) orally took the test drug detailed below every day for 8 weeks, and their symptoms of ASD were assessed by the diagnostic method described below before (before the start of administration) and 8 weeks after the intake of the drug (8 weeks after the start of administration).
The symptoms of ASD of the ASD patient were assessed based on the scores of ABC-J, PARS-TR, and RSB-R (Japanese version) by a medical doctor who is a researcher of ASD. […]

[1] = case 1, 600 mg/day oral + fursultiamine 25 mg/day, 1 month after start, before administration: 0
[2] = case 1, 600 mg/day oral + fursultiamine 25 mg/day, 1 month after start, before administration: 1
[3] = case 1, 600 mg/day oral + fursultiamine 25 mg/day, 1 month after start, before administration: 2
[4] = case 1, 600 mg/day oral + fursultiamine 25 mg/day, 1 month after start, before administration: 3
[5] = case 2, 600 mg/day oral + fursultiamine 25 mg/day, 17 days after start, before administration: 0
[6] = case 2, 600 mg/day oral + fursultiamine 25 mg/day, 17 days after start, before administration: 1
[7] = case 2, 600 mg/day oral + fursultiamine 25 mg/day, 17 days after start, before administration: 2
[8] = case 2, 600 mg/day oral + fursultiamine 25 mg/day, 17 days after start, before administration: 4
[9] = case 4, 800 mg/day oral + fursultiamine 25 mg/day, 8 weeks

Structure (SMILES): Cc1ncc(CO)c(CN)c1O.Cl.Cl [pyridoxamine dihydrochloride]
- ABC-J symptoms across the 5 subscales I to V compared with before taking the drug (case 1, 600 mg/day oral + fursultiamine 25 mg/day, 1 month): significant improvement in symptoms
- ABC-J item 2 score (Irritability) [1]: 0
- ABC-J item 3 score (Lethargy) [1]: 0
- ABC-J item 4 score (Irritability) [1]: 1
- ABC-J item 5 score (Lethargy) [1]: 0
- ABC-J item 9 score (Inappropriate Speech) [1]: 0
- ABC-J item 13 score (Hyperactivity) [1]: 0
- ABC-J item 16 score (Lethargy) [1]: 0
- ABC-J item 32 score (Lethargy) [1]: 1
- ABC-J item 33 score (Inappropriate Speech) [1]: 0
- ABC-J item 34 score (Irritability) [1]: 0
- ABC-J item 42 score (Lethargy) [1]: 0
- ABC-J item 47 score (Irritability) [1]: 0
- ABC-J item 50 score (Irritability) [1]: 0
- ABC-J item 52 score (Irritability) [1]: 0
- ABC-J item 53 score (Lethargy) [1]: 0
- ABC-J item 54 score (Hyperactivity) [1]: 0
- ABC-J item 55 score (Lethargy) [1]: 0
- ABC-J item 56 score (Hyperactivity) [1]: 0
- ABC-J item 8 score (Irritability) [2]: 0
- ABC-J item 12 score (Lethargy) [2]: 1
- ABC-J item 17 score (Stereotypical Behavior) [2]: 0
- ABC-J item 18 score (Hyperactivity) [2]: 0
- ABC-J item 19 score (Irritability) [2]: 0
- ABC-J item 20 score (Lethargy) [2]: 1
- ABC-J item 21 score (Hyperactivity) [2]: 0
- ABC-J item 24 score (Hyperactivity) [2]: 0
- ABC-J item 25 score (Irritability) [2]: 0
- ABC-J item 26 score (Lethargy) [2]: 0
- ABC-J item 28 score (Hyperactivity) [2]: 0
- ABC-J item 29 score (Irritability) [2]: 0
- ABC-J item 30 score (Lethargy) [2]: 0
- ABC-J item 31 score (Hyperactivity) [2]: 0
- ABC-J item 36 score (Irritability) [2]: 0
- ABC-J item 37 score (Lethargy) [2]: 0
- ABC-J item 40 score (Lethargy) [2]: 1
- ABC-J item 41 score (Irritability) [2]: 0
- ABC-J item 43 score (Lethargy) [2]: 0
- ABC-J item 46 score (Inappropriate Speech) [2]: 0
- ABC-J item 48 score (Hyperactivity) [2]: 1
- ABC-J item 51 score (Hyperactivity) [2]: 0
- ABC-J item 57 score (Irritability) [2]: 0
- ABC-J item 58 score (Lethargy) [2]: 1
- ABC-J item 1 score (Hyperactivity) [3]: 1
- ABC-J item 7 score (Hyperactivity) [3]: 0
- ABC-J item 10 score (Irritability) [3]: 0
- ABC-J item 14 score (Irritability) [3]: 0
- ABC-J item 15 score (Hyperactivity) [3]: 1
- ABC-J item 22 score (Inappropriate Speech) [3]: 1
- ABC-J item 23 score (Lethargy) [3]: 1
- ABC-J item 27 score (Stereotypical Behavior) [3]: 1
- ABC-J item 35 score (Stereotypical Behavior) [3]: 1
- ABC-J item 38 score (Hyperactivity) [3]: 1
- ABC-J item 39 score (Hyperactivity) [3]: 0
- ABC-J item 44 score (Hyperactivity) [3]: 0
- ABC-J item 45 score (Stereotypical Behavior) [3]: 1
- ABC-J item 49 score (Stereotypical Behavior) [3]: 1
- ABC-J item 6 score (Stereotypical Behavior) [4]: 1
- ABC-J item 11 score (Stereotypical Behavior) [4]: 1
- ABC-J subscale total score: Inappropriate Speech [4]: 1
- ABC-J subscale total score: Lethargy (case 1, 600 mg/day oral + fursultiamine 25 mg/day, 1 month after start, before administration: 10): 6
- ABC-J subscale total score: Irritability (case 1, 600 mg/day oral + fursultiamine 25 mg/day, 1 month after start, before administration: 11): 1
- ABC-J subscale total score: Stereotypical Behavior (case 1, 600 mg/day oral + fursultiamine 25 mg/day, 1 month after start, before administration: 15): 6
- ABC-J subscale total score: Hyperactivity (case 1, 600 mg/day oral + fursultiamine 25 mg/day, 1 month after start, before administration: 19): 4
- ABC-J symptoms across all of the 5 subscales I to V (case 2, 600 mg/day oral + fursultiamine 25 mg/day, 17 days): significantly improved symptoms
- ABC-J item 2 score (Irritability) [5]: 0
- ABC-J item 7 score (Hyperactivity) [5]: 0
- ABC-J item 8 score (Irritability) [5]: 0
- ABC-J item 9 score (Inappropriate Speech) [5]: 0
- ABC-J item 11 score (Stereotypical Behavior) [5]: 0
- ABC-J item 13 score (Hyperactivity) [5]: 0
- ABC-J item 17 score (Stereotypical Behavior) [5]: 0
- ABC-J item 18 score (Hyperactivity) [5]: 0
- ABC-J item 19 score (Irritability) [5]: 0
- ABC-J item 27 score (Stereotypical Behavior) [5]: 0
- ABC-J item 28 score (Hyperactivity) [5]: 0
- ABC-J item 29 score (Irritability) [5]: 0
- ABC-J item 31 score (Hyperactivity) [5]: 0
- ABC-J item 32 score (Lethargy) [5]: 0
- ABC-J item 33 score (Inappropriate Speech) [5]: 0
- ABC-J item 34 score (Irritability) [5]: 0
- ABC-J item 36 score (Irritability) [5]: 0
- ABC-J item 38 score (Hyperactivity) [5]: 0
- ABC-J item 39 score (Hyperactivity) [5]: 0
- ABC-J item 41 score (Irritability) [5]: 0
- ABC-J item 44 score (Hyperactivity) [5]: 0
- ABC-J item 47 score (Irritability) [5]: 0
- ABC-J item 48 score (Hyperactivity) [5]: 0
- ABC-J item 49 score (Stereotypical Behavior) [5]: 0
- ABC-J item 50 score (Irritability) [5]: 0
- ABC-J item 51 score (Hyperactivity) [5]: 0
- ABC-J item 52 score (Irritability) [5]: 0
- ABC-J item 53 score (Lethargy) [5]: 0
- ABC-J item 54 score (Hyperactivity) [5]: 0
- ABC-J item 55 score (Lethargy) [5]: 0
- ABC-J item 56 score (Hyperactivity) [5]: 0
- ABC-J item 57 score (Irritability) [5]: 0
- ABC-J item 1 score (Hyperactivity) [6]: 1
- ABC-J item 4 score (Irritability) [6]: 0
- ABC-J item 10 score (Irritability) [6]: 0
- ABC-J item 12 score (Lethargy) [6]: 0
- ABC-J item 15 score (Hyperactivity) [6]: 1
- ABC-J item 20 score (Lethargy) [6]: 0
- ABC-J item 21 score (Hyperactivity) [6]: 0
- ABC-J item 23 score (Lethargy) [6]: 0
- ABC-J item 24 score (Hyperactivity) [6]: 0
- ABC-J item 26 score (Lethargy) [6]: 1
- ABC-J item 30 score (Lethargy) [6]: 0
- ABC-J item 35 score (Stereotypical Behavior) [6]: 0
- ABC-J item 37 score (Lethargy) [6]: 0
- ABC-J item 40 score (Lethargy) [6]: 0
- ABC-J item 43 score (Lethargy) [6]: 0
- ABC-J item 58 score (Lethargy) [6]: 0
- ABC-J item 3 score (Lethargy) [7]: 0
- ABC-J item 5 score (Lethargy) [7]: 1
- ABC-J item 6 score (Stereotypical Behavior) [7]: 1
- ABC-J item 14 score (Irritability) [7]: 0
- ABC-J item 16 score (Lethargy) [7]: 1
- ABC-J item 22 score (Inappropriate Speech) [7]: 1
- ABC-J item 25 score (Irritability) [7]: 0
- ABC-J item 45 score (Stereotypical Behavior) [7]: 1
- ABC-J item 46 score (Inappropriate Speech) [7]: 1
- ABC-J item 42 score (Lethargy) (case 2, 600 mg/day oral + fursultiamine 25 mg/day, 17 days after start, before administration: 3): 2
- ABC-J subscale total score: Hyperactivity [8]: 2
- ABC-J subscale total score: Inappropriate Speech [8]: 2
- ABC-J subscale total score: Stereotypical Behavior (case 2, 600 mg/day oral + fursultiamine 25 mg/day, 17 days after start, before administration: 5): 2
- ABC-J subscale total score: Irritability (case 2, 600 mg/day oral + fursultiamine 25 mg/day, 17 days after start, before administration: 6): 0
- ABC-J subscale total score: Lethargy (case 2, 600 mg/day oral + fursultiamine 25 mg/day, 17 days after start, before administration: 18): 5
- total score of all ABC-J items compared with before administration (case 3, 800 mg/day oral + fursultiamine 25 mg/day, 8 weeks, FIG. 7A): decreased
- ABC-J total score of each of the 5 subscales compared with before administration (case 3, 800 mg/day oral + fursultiamine 25 mg/day, 8 weeks, FIG. 7B): decreased
- total score of all items of ABC-J compared with before administration (case 4 (no speech), 800 mg/day oral + fursultiamine 25 mg/day, 8 weeks, FIG. 9A): decreased
- severity of irritability and self-harming behavior [9]: alleviated the severity
- stereotypical behaviors (DSM-5 diagnostic criteria B(1)) [9]: significantly improved
- ABC-J subtotal score of the four subscales compared with before administration (case 4, 800 mg/day oral + fursultiamine 25 mg/day, 8 weeks, Inappropriate Speech zero because no speech, FIG. 9B): decreased

Source: patent US11253519B2, “Composition used to improve symptoms of autism spectrum disorder, and method using same for improving symptoms of autism spectrum disorder” (RENASCIENCE CO., LTD., priority 2016, dated 2022)
